ChEMBL document CHEMBL3585264 (J Med Chem, 2015)

Assays:
Rattus norvegicus = experiment: (§1) Tmax in rat at 5 mg/kg, po; assay type: ADME, organism-based; details: in vivo, BLD = below limit of detection
[1] = Cmax in rat at 5 mg/kg, po; assay type: ADME, organism-based; design: dose 5 mg/kg, route oral; details: in vivo
[2] = Mean residence time in rat at 2 mg/kg, iv; assay type: ADME, organism-based; details: in vivo
[3] = AUC (0 to infinity) in rat at 5 mg/kg, po; assay type: ADME, organism-based; design: dose 5 mg/kg, time infinity, route oral; details: in vivo
[4] = Oral bioavailability in rat at 5 mg/kg; assay type: ADME, organism-based; details: in vivo
[5] = Plasma concentration in CB17 SCID mouse xenografted with human PC3 cells at 1 mg/kg, po measured at 10 hrs by LC/MS-MS analysis; assay type: ADME, organism-based, PC-3
[6] = Plasma concentration in CB17 SCID mouse xenografted with human PC3 cells at 10 mg/kg, po measured at 24 hrs by LC/MS-MS analysis; assay type: ADME, organism-based, PC-3
[7] = Plasma concentration in CB17 SCID mouse xenografted with human PC3 cells at 10 mg/kg, po measured at 10 hrs by LC/MS-MS analysis; assay type: ADME, organism-based, PC-3
[8] = Plasma concentration in CB17 SCID mouse xenografted with human PC3 cells at 1 mg/kg, po measured at 6 hrs by LC/MS-MS analysis; assay type: ADME, organism-based, PC-3
[9] = Plasma concentration in CB17 SCID mouse xenografted with human PC3 cells at 10 mg/kg, po measured at 1 hr by LC/MS-MS analysis; assay type: ADME, organism-based, PC-3
[10] = Plasma concentration in CB17 SCID mouse xenografted with human PC3 cells at 10 mg/kg, po measured at 3 hrs by LC/MS-MS analysis; assay type: ADME, organism-based, PC-3
[11] = Plasma concentration in CB17 SCID mouse xenografted with human PC3 cells at 10 mg/kg, po measured at 6 hrs by LC/MS-MS analysis; assay type: ADME, organism-based, PC-3
[12] = Oral bioavailability in dog at 0.3 mg/kg; assay type: ADME, organism-based, Canis lupus familiaris; details: in vivo
[13] = Plasma concentration in CB17 SCID mouse xenografted with human PC3 cells at 1 mg/kg, po measured at 24 hrs by LC/MS-MS analysis; assay type: ADME, organism-based, PC-3
[14] = Plasma concentration in CB17 SCID mouse xenografted with human PC3 cells at 1 mg/kg, po measured at 1 hr by LC/MS-MS analysis; assay type: ADME, organism-based, PC-3
[15] = Oral bioavailability in mouse at 5 mg/kg; assay type: ADME, organism-based; details: in vivo
[16] = Plasma concentration in CB17 SCID mouse xenografted with human PC3 cells at 1 mg/kg, po measured at 3 hrs by LC/MS-MS analysis; assay type: ADME, organism-based, PC-3
[17] = as §1; assay type: ADME, organism-based; details: in vivo

For `O=C1CN(CCC2CCOCC2)c2nc(-c3ccc(-c4nc[nH]n4)cc3)cnc2N1`, the Tmax (Rattus norvegicus) was “BLD”.
A Cmax [1] of 550 nM, an MRT [2] of 1.2 h and an AUC(0-inf) [3] of 5.27 µM·h were found for `CCN1CC(=O)Nc2ncc(-c3ccc(-c4nc[nH]n4)nc3C)nc21` in this work. For the same compound, the bioavailability [4] was 50%.
A Cmax [1] of 1670 nM, a concentration at 10 h [5] of 120 nM and a concentration at 24 h [6] of 800 nM were found for `CCN1C(=O)CNc2ncc(-c3ccc(-c4nc[nH]n4)nc3C)nc21` [CC-115] in this work. The concentration at 10 h [7] was 1180 nM, the concentration at 6 h [8] was 130 nM and the concentration at 1 h [9] was 6780 nM. For the same compound, the concentration at 3 h [10] was 5690 nM, the MRT [2] was 4.3 h and the AUC(0-inf) [3] was 27.5 µM·h. The concentration at 6 h [11] was 2100 nM, the bioavailability [12] was 100% and the concentration at 24 h [13] was 5 nM. It also gave a concentration at 1 h [14] of 530 nM, a bioavailability [15] of 53% and a bioavailability [4] of 78%. It also gave a concentration at 3 h [16] of 340 nM.
A Cmax [1] of 20 nM, an AUC(0-inf) [3] of 0.18 µM·h and a Tmax [17] of 0.9 h were found for `O=C1CN(CCC2CCOCC2)c2nc(-c3ccc(-c4nc[nH]n4)nc3)cnc2N1` in this work.
